Measured values as given in patent US11311625B2, “Peptide-based multiple-drug delivery vehicle” (priority 2015, dated 2022).

Tests used:
[1] = test system: human embryonic kidney 293 (HEK293) cells; type: cell-based
Experimental: (§1) The cytotoxicity of the conjugates was determined by measuring the mitochondrial enzyme activity, using a commercial XTT assay kit. All samples contained DMSO at a final concentration <0.05%. Cells were cultured in micro wells at 2-4×10^4 cells/mL and incubated for 24 h or 72 h at 37° C. After the first incubation period of 24 h the cultures were washed and then given a fresh medium containing different concentrations of the tested substances. At the end of the second incubation, XTT reagent was added and the cells were re-incubated for additional 2-4 h. During that time the absorbencies in the wells were measured with a TECAN Infinite M200 ELISA reader at both 480 and 680 nm. The difference between these measurements was used for calculating the % viability in test wells compared to two controls: cells that were exposed to the medium and solvent, and those which were exposed to a solvent-free medium. All the tests were done in triplicate. Each experiment was conducted twice.
(§2) The in vitro activity of 9a was determined on human embryonic kidney 293 (HEK293) cells and human prostate cancer TRAMP C2 cell lines in order to compare the cytotoxicity of 9a relative to the three selected free drugs. […] The cytotoxicity of 9a was determined by measuring the mitochondrial enzyme activity of the different cell lines after incubation with the different substances for 24 h and 72 h.

[2] = test system: human prostate cancer TRAMP C2 cell lines; type: cell-based
Experimental: as §1, §2

[3] = Bio-stability of 9a in murine liver homogenate (LH); type: in vitro ADME, mouse
Experimental: Preparation of the LH and assay: Mice were sacrificed by CO2 inhalation euthanasia. The livers were removed, minced, washed three times in cold PBS buffer and homogenized in Tris-HCl, pH 7.4 buffer (wt/3 vol.) by dozen strokes in a Potter-Elvehjem glass tissue grinder. The tissue homogenate was centrifuged at 4° C., 14000 rpm, 20 min. The supernatant was carefully collected (LH) and used immediately or else stored in liquid nitrogen. The concentration of protein was measured using the BCA protein assay with bovine serum albumin as a standard.
Assay incubation procedure: Incubations were conducted in an incubator oven set at 37° C. Each incubation tube contained 2 mL homogenate samples (equivalent to 6 mg total protein of mouse LH). The samples were prepared by adding 50 μL of stock solution to the LH at the beginning of the incubation period. Aliquots (100 μL) of the LH mixture were removed after 10, 30, 60, 90, 120, and 180 min. immediately quenched with 2.5 volumes of ethanol, and centrifuged at 14000 rpm for 15 min. The supernatants were collected, filtered and analyzed by LC-MS.
In order to get a biologically relevant picture of the release sequence of the different drugs, the bio-stability of 9a in murine liver homogenate (LH) was studied. Examination of the degradation rate of 9a, accompanied by cleavage of free drugs, was carried out following the LC-MS trace at different time intervals using premade authentic samples as reference signals.

[4] = test system: HEK293 and TRAMP C2 cell lines; type: cell-based, human
Experimental: as §1, with “The difference between these measurements was used for calculating the % viability in test wells compared to two controls: cells that were exposed to the medium and solvent, and those which were exposed to a solvent-free medium. All the tests were done in triplicate. Each experiment was conducted twice.” left out
as §2, with “h. The viability factor (% of surviving cells) of the cell cultures was calculated relative to a control sample incubated with the vehicle only, considered as 100% viability. […]” for “h.”
FIGS. 19A-19D present the results of the viability assay (% surviving cells) of the cell cultures calculated relative to the control, 100% viability. […]

COc1cc([C@@H]2c3[nH]c4ccccc4c3C[C@H]3COC(=O)N32)cc(OC)c1O [AZA, Azatoxin, reference compound]
surviving cells [1]: less than 10%
surviving cells [2]: less than 10%
stability of free drug in LH [3]: stable
cytotoxic effect / relative cytotoxic activity [4]: most active drug
